# Results from ChEMBL document CHEMBL5661943, “ASAP - In vitro antiviral effect” (2024).
# Tests used:
# [1] = tested on: dengue virus type 2; assay: Functional assay to measure dose dependent changes in antiviral-drug inhibitory efficacy against Dengue virus type 2 New Guinea C in Vero E6 miRFP670 cells (cotreated with P-gp inhibitor, CP100356). Cells are treated with antiviral candidates that are serially diluted, following infection, cells are fixed. EC50 is reported via analysis of fluorescence intensity using high-content imager. The …; type: organism-based, Chlorocebus sabaeus, Vero C1008; conditions: Dengue virus; for EC90: P-gp concentration 500 nM, P-gp inhibitor CP100356
# [2] = tested on: Zika virus; assay: Functional CPE-based assay to measure dose dependent changes in antiviral-drug inhibitory efficacy against Zika virus MR766 in Vero E6 miRFP670 cells (cotreated with P-gp inhibitor, CP100356). Cells are treated with antiviral candidates that are serially diluted. EC50 is reported via analysis of MTS assay as a readout of CPE. The assay has been performed by KU Leuven.; type: organism-based, Chlorocebus sabaeus, Vero C1008; conditions: Zika virus; for EC90: P-gp concentration 500 nM, P-gp inhibitor CP100356
smiles,measurement,setting,value
COc1cc(Br)cc(C(=O)Nc2ccc3c(c2)CNC3)c1,EC50,[1]; Vero C1008,> 25 µM
same,EC90,"[1]; Vero C1008, Baseline response 0 %, Hill slope -0.242, Maximum measured 88.855 %, Maximum response 100 %, Minimum measured 49.171 %, R squared 0.071",> 25 µM
same,EC50,[2]; Vero C1008,12.8 µM
same,EC90,"[2]; Vero C1008, Baseline response 0 %, EC90 CI (lower) 14.493 uM, EC90 CI (upper) 28.879 uM, Hill slope 4.703, Maximum measured 104.946 %, Maximum response 100 %, Minimum measured 1.527 %, R squared 0.964",20.5 µM
O=C(Nc1ccc2c(c1)CNC2)c1cccc2[nH]c(C(F)(F)F)cc12,EC50,[1]; Vero C1008,11.6 µM
same,EC90,"[1]; Vero C1008, Baseline response 0 %, Hill slope -1.333, Maximum measured 97.959 %, Maximum response 100 %, Minimum measured 43.335 %, R squared 0.826",> 12.5 µM
same,EC50,[2]; Vero C1008,0.857 µM
same,EC90,"[2]; Vero C1008, Baseline response 0 %, EC90 CI (lower) 0.735 uM, EC90 CI (upper) 5.08 uM, Hill slope 2.705, Maximum measured 139.12 %, Maximum response 100 %, Minimum measured 13.658 %, R squared 0.773",1.93 µM
O=C(Nc1ccc2c(c1)CNC2)c1cc(Cl)cc2[nH]c(-c3ccnn3C3CC3)nc12,EC50,[1]; Vero C1008,> 6.25 µM
same,EC90,"[1]; Vero C1008, Baseline response 0 %, Hill slope 11.741, Maximum measured 109.967 %, Maximum response 100 %, Minimum measured 87.357 %, R squared 0.219",> 6.25 µM
same,EC50,[2]; Vero C1008,> 0.781 µM
same,EC90,"[2]; Vero C1008, Baseline response 0 %, Hill slope 2.383, Maximum measured 38.126 %, Maximum response 100 %, Minimum measured 10.566 %, R squared 0.88",> 0.781 µM
O=C(NCCCn1ccnc1)[C@H](Nc1ccc2c(c1)CNC2)c1cc(Cl)cc(C2CC2)c1,EC50,[1]; Vero C1008,> 50 µM
same,EC90,"[1]; Vero C1008, Baseline response 0 %, Hill slope 0.691, Maximum measured 120.843 %, Maximum response 100 %, Minimum measured 86.475 %, R squared 0.179",> 50 µM
same,EC50,[2]; Vero C1008,> 50 µM
same,EC90,"[2]; Vero C1008, Maximum measured 4.008 %, Minimum measured -17.269 %",> 50 µM
O=C(Nc1ccc2c(c1)CNC2)c1cc(Cl)cc2[nH]c(-c3ccc(F)cc3O)nc12,EC50,[1]; Vero C1008,> 1.56 µM
same,EC90,"[1]; Vero C1008, Maximum measured 186.201 %, Minimum measured 124.759 %",> 1.56 µM
same,EC50,[2]; Vero C1008,> 0.781 µM
same,EC90,"[2]; Vero C1008, Baseline response 0 %, Hill slope 0.819, Maximum measured -0.871 %, Maximum response 100 %, Minimum measured -1.788 %, R squared 0.426",> 0.781 µM
Cn1cc2c(C(=O)Nc3ccc4c(c3)CNC4)cc(F)cc2n1,EC50,[1]; Vero C1008,> 50 µM
same,EC90,"[1]; Vero C1008, Baseline response 0 %, Hill slope 0.83, Maximum measured 109.464 %, Maximum response 100 %, Minimum measured 93.167 %, R squared 0.272",> 50 µM
same,EC50,[2]; Vero C1008,3.02 µM
same,EC90,"[2]; Vero C1008, Baseline response 0 %, EC90 CI (lower) 4.41 uM, EC90 CI (upper) 19.306 uM, Hill slope 1.966, Maximum measured 124.261 %, Maximum response 100 %, Minimum measured 18.013 %, R squared 0.888",9.23 µM
O=C(Nc1ccc2c(c1)CNC2)c1cc(Cl)cc2cc[nH]c12,EC50,[1]; Vero C1008,2.21 µM
same,EC90,"[1]; Vero C1008, Baseline response 0 %, Hill slope -2.776, Maximum measured 94.432 %, Maximum response 100 %, Minimum measured 26.957 %, R squared 0.875",> 3.12 µM
same,EC50,[2]; Vero C1008,1 µM
same,EC90,"[2]; Vero C1008, Baseline response 0 %, EC90 CI (lower) 0.797 uM, EC90 CI (upper) 4.564 uM, Hill slope 3.408, Maximum measured 129.449 %, Maximum response 100 %, Minimum measured 8.447 %, R squared 0.85",1.91 µM
CC1=C(c2cc(NC(=O)c3cc(Cl)cc4[nH]ncc34)cc3c2CNC3)CCC1=O,EC50,[1]; Vero C1008,> 50 µM
same,EC90,"[1]; Vero C1008, Maximum measured 165.308 %, Minimum measured 53.221 %",> 50 µM
same,EC50,[2]; Vero C1008,> 50 µM
same,EC90,"[2]; Vero C1008, Baseline response 0 %, Hill slope 0.456, Maximum measured 3.948 %, Maximum response 100 %, Minimum measured -0.924 %, R squared 0.076",> 50 µM
Cn1c(=O)[nH]c2c(C(=O)Nc3ccc4c(c3)CNC4)cc(Br)cc21,EC50,[1]; Vero C1008,> 50 µM
same,EC90,"[1]; Vero C1008, Baseline response 0 %, Hill slope -2.293, Maximum measured 105.522 %, Maximum response 100 %, Minimum measured 55.095 %, R squared 0.397",> 50 µM
same,EC50,[2]; Vero C1008,0.724 µM
same,EC90,"[2]; Vero C1008, Baseline response 0 %, EC90 CI (lower) 0.762 uM, EC90 CI (upper) 6.925 uM, Hill slope 1.902, Maximum measured 109.696 %, Maximum response 100 %, Minimum measured 27.933 %, R squared 0.521",2.3 µM
O=C(Nc1cc2c(c(C3=CC[C@H](O)CC3)c1)CNC2)c1cc(Cl)cc2[nH]ncc12,EC50,[1]; Vero C1008,> 50 µM
same,EC90,"[1]; Vero C1008, Maximum measured 128.94 %, Minimum measured 80.48 %",> 50 µM
same,EC50,[2]; Vero C1008,46.6 µM
same,EC90,"[2]; Vero C1008, Baseline response 0 %, Hill slope 3.698, Maximum measured 56.446 %, Maximum response 100 %, Minimum measured 0.896 %, R squared 0.945",> 50 µM
O=C(Nc1ccc2c(c1)CNC2)c1cccc2[nH]c(=O)[nH]c12,EC50,[1]; Vero C1008,> 12.5 µM
same,EC90,"[1]; Vero C1008, Baseline response 0 %, Hill slope 0.241, Maximum measured 94.031 %, Maximum response 100 %, Minimum measured 72.295 %, R squared 0.287",> 12.5 µM
same,EC50,[2]; Vero C1008,> 50 µM
same,EC90,"[2]; Vero C1008, Maximum measured 11.079 %, Minimum measured -6.229 %",> 50 µM
O=C(Nc1ccc2c(c1)CNC2)c1cccc2nc(O)ccc12,EC50,[1]; Vero C1008,> 50 µM
same,EC90,"[1]; Vero C1008, Maximum measured 128.112 %, Minimum measured 90.404 %",> 50 µM
same,EC50,[2]; Vero C1008,> 50 µM
same,EC90,"[2]; Vero C1008, Maximum measured -4.519 %, Minimum measured -18.451 %",> 50 µM
O=C1Cc2cc(C(=O)Nc3ccc4c(c3)CNC4)ccc2N1,EC50,[1]; Vero C1008,> 50 µM
same,EC90,"[1]; Vero C1008, Maximum measured 132.031 %, Minimum measured 88.326 %",> 50 µM
same,EC90,"[1]; Vero C1008, Maximum measured 147.509 %, Minimum measured 105.326 %",> 50 µM
same,EC90,"[1]; Vero C1008, Maximum measured 183.11 %, Minimum measured 101.645 %",> 50 µM
same,EC50,[2]; Vero C1008,> 50 µM
same,EC90,"[2]; Vero C1008, Maximum measured 9.003 %, Minimum measured -9.167 %",> 50 µM
same,EC90,"[2]; Vero C1008, Baseline response 0 %, Hill slope 1.599, Maximum measured 7.523 %, Maximum response 100 %, Minimum measured -2.208 %, R squared 0.547",> 50 µM
O=C(NCc1cccnc1)[C@H](Nc1ccc2c(c1)CNC2)c1cc(Cl)cc2[nH]ncc12,EC50,[1]; Vero C1008,> 50 µM
same,EC90,"[1]; Vero C1008, Maximum measured 132.553 %, Minimum measured 89.084 %",> 50 µM
same,EC50,[2]; Vero C1008,> 50 µM
same,EC90,"[2]; Vero C1008, Maximum measured -0.377 %, Minimum measured -17.936 %",> 50 µM
O=C(Nc1ccc2c(c1)CNC2)c1cccc2cn[nH]c12,EC50,[1]; Vero C1008,46.1 µM
same,EC90,"[1]; Vero C1008, Baseline response 0 %, Hill slope -1.364, Maximum measured 96.577 %, Maximum response 100 %, Minimum measured 45.147 %, R squared 0.579",> 50 µM
same,EC50,[2]; Vero C1008,> 50 µM
same,EC90,"[2]; Vero C1008, Baseline response 0 %, Hill slope 0.311, Maximum measured 17.727 %, Maximum response 100 %, Minimum measured -4.778 %, R squared 0.076",> 50 µM
O=C(Nc1cc2c(cc1Br)CNC2)c1cc(F)cc2[nH]ncc12,EC50,[1]; Vero C1008,> 25 µM
same,EC90,"[1]; Vero C1008, Baseline response 0 %, Hill slope -2.027, Maximum measured 102.892 %, Maximum response 100 %, Minimum measured 55.622 %, R squared 0.83",> 25 µM
same,EC50,[2]; Vero C1008,0.721 µM
same,EC90,"[2]; Vero C1008, Baseline response 0 %, EC90 CI (lower) 0.74 uM, EC90 CI (upper) 4.973 uM, Hill slope 2.246, Maximum measured 124.778 %, Maximum response 100 %, Minimum measured 29.701 %, R squared 0.756",1.92 µM
O=C(Nc1ccc2c(c1)CNC2)c1cc(F)cc(-c2cnc(C3CC3)s2)c1,EC50,[1]; Vero C1008,11.6 µM
same,EC90,"[1]; Vero C1008, Baseline response 0 %, Hill slope -1.802, Maximum measured 130.062 %, Maximum response 100 %, Minimum measured 44.88 %, R squared 0.382",> 12.5 µM
same,EC50,[2]; Vero C1008,5.37 µM
same,EC90,"[2]; Vero C1008, Baseline response 0 %, Hill slope 4.772, Maximum measured 67.326 %, Maximum response 100 %, Minimum measured 1.512 %, R squared 0.988",> 6.25 µM
O=C(Nc1ccc2c(c1)CNC2)c1cc(Cl)cc2ccccc12,EC50,[1]; Vero C1008,> 50 µM
same,EC90,"[1]; Vero C1008, Baseline response 0 %, Hill slope 0.531, Maximum measured 139.444 %, Maximum response 100 %, Minimum measured 57.429 %, R squared 0.178",> 50 µM
same,EC50,[2]; Vero C1008,> 50 µM
same,EC90,"[2]; Vero C1008, Baseline response 0 %, Hill slope -0.363, Maximum measured 9.094 %, Maximum response 100 %, Minimum measured -16.765 %, R squared 0.057",> 50 µM
O=C(Nc1ccc2c(c1)CNC2)c1cc(Cl)cc2c1NCCC2,EC50,[1]; Vero C1008,> 50 µM
same,EC90,"[1]; Vero C1008, Baseline response 0 %, Hill slope 0.298, Maximum measured 134.107 %, Maximum response 100 %, Minimum measured 52.01 %, R squared 0.047",> 50 µM
same,EC50,[2]; Vero C1008,> 50 µM
same,EC90,"[2]; Vero C1008, Maximum measured 8.781 %, Minimum measured -16.872 %",> 50 µM
